Assays:
[1] = tested on: GR soybean cultivars A4501RR, A5901RR, DK5961RR, H5164RR, TV5866RR; assay: Greenhouse Example 2: sensitivity of five GR soybean cultivars to glyphosate; type: in vivo, soybean (Glycine max); conditions: 40 DAE
Source text: The other plants were not treated and served as controls. […] The experiment was a completely random design with six replications.

[2] = tested on: TV5866RR soybean inoculated with B. japonicum (USDA 110); assay: Growth cabinet time course of nodule acetylene reduction activity (ARA); type: in vivo, soybean (Glycine max); conditions: 1.68 kg ha^−1 at 5, 12, and 19 DAE
Source text: The time course of nodule activity from 14 to 28 DAE was followed in a series of four runs of an experiment in a growth cabinet. Soybean seeds were sown in N-free potting media in pots constructed of 15-cm diameter polyvinyl chloride pipe. These pipes allow nondestructive measurement of nodule activity by the acetylene reduction assay as described by Purcell et al. (1997). Seeds were inoculated with B. japonicum (USDA 110), and pots were supplied with N-free nutrients. […] Acetylene reduction activity (ARA) was measured at 14, 21, and 28 DAE by passing a 9:1 air to acetylene mixture through the pots at 0.5 L min^−1. After 8 min., 1-mL aliquots of the effluent gas stream were collected from each pot and analyzed for ethylene by gas chromatography. Nitrogenase activity for glyphosate-treated and control plants was similar at 14 DAE, except for Run 4 when ARA was lower for glyphosate-treated plants (Table 5). ARA was 12 to 20% lower for glyphosate-treated plants at 21 DAE in three of the four runs. By 28 DAE, ARA was lower in glyphosate-treated plants only in Run 2 and was greater than control plants in Run 1.

[3] = tested on: soybean cultivar DK5961RR; assay: Greenhouse Example 3: response to glyphosate with and without available soil nitrogen; type: in vivo, soybean (Glycine max)
Description: Treatments were a factorial arrangement of two harvest dates, plus and minus soil nitrogen, and plus and minus glyphosate application. Experimental conditions were similar to those described for Examples 1 and 2, including timing of nutrient applications. […] Plants were harvested at 19 and 40 DAE as described previously. For the plus nitrogen treatment, plants harvested at 19 and 40 DAE received in the nutrient solution at total of 150 and 300 mg N as NO3^−1, respectively. The experiment was a randomized complete block with six replications and was repeated.

[4] = tested on: selected B. japonicum cultures (from USDA 110); assay: Growth in Tulley's media with 5 mM glyphosate, colonies selected in Example 6 (Example 7); type: cell-based, Bradyrhizobium japonicum
Description: Duplicate cultures were evaluated from each of the original colony selections. […] The cultures were allowed to grow for 14 days, and then the OD of each culture was measured.

[5] = DK5961RR, Harvest 1 (19 DAE), soil nitrogen no
[6] = DK5961RR, Harvest 1 (19 DAE), soil nitrogen yes
[7] = DK5961RR, Harvest 2 (40 DAE), averaged over soil nitrogen treatments

O=C(O)CNCP(=O)(O)O [glyphosate, N-(phosphonomethyl)glycine]
Shoot mass effect [1]: decreased
Biomass Nodule ([1]; A4501RR, E + L treatment): 0.47 g plant^−1
Biomass Root ([1]; A4501RR, E + L treatment): 1.22 g plant^−1
Biomass Shoot ([1]; A4501RR, E + L treatment): 4.55 g plant^−1
Nitrogen Root ([1]; A4501RR, E + L treatment): 45 mg plant^−1
Nitrogen Shoot ([1]; A4501RR, E + L treatment): 185 mg plant^−1
Nodule biomass effect ([1]; A5901RR): increased
Biomass Nodule ([1]; A5901RR, E + L treatment): 0.54 g plant^−1
Biomass Root ([1]; A5901RR, E + L treatment): 0.93 g plant^−1
Biomass Shoot ([1]; A5901RR, E + L treatment): 4.03 g plant^−1
Nitrogen Root ([1]; A5901RR, E + L treatment): 45 mg plant^−1
Nitrogen Shoot ([1]; A5901RR, E + L treatment): 163 mg plant^−1
Nodule mass effect ([1]; DK5961RR): decreased
Biomass Nodule ([1]; DK5961RR, E + L treatment): 0.40 g plant^−1
Biomass Root ([1]; DK5961RR, E + L treatment): 0.74 g plant^−1
Biomass Shoot ([1]; DK5961RR, E + L treatment): 3.41 g plant^−1
Nitrogen Root ([1]; DK5961RR, E + L treatment): 31 mg plant^−1
Nitrogen Shoot ([1]; DK5961RR, E + L treatment): 142 mg plant^−1
Biomass Nodule ([1]; H5164RR, E + L treatment): 0.47 g plant^−1
Biomass Root ([1]; H5164RR, E + L treatment): 1.18 g plant^−1
Biomass Shoot ([1]; H5164RR, E + L treatment): 4.36 g plant^−1
Nitrogen Root ([1]; H5164RR, E + L treatment): 46 mg plant^−1
Nitrogen Shoot ([1]; H5164RR, E + L treatment): 170 mg plant^−1
Biomass Root ([1]; TV5866RR, E + L treatment): 0.71 g plant^−1
Biomass Shoot ([1]; TV5866RR, E + L treatment): 3.07 g plant^−1
Nitrogen Root ([1]; TV5866RR, E + L treatment): 35 mg plant^−1
Nitrogen Shoot ([1]; TV5866RR, E + L treatment): 131 mg plant^−1
Biomass Nodule ([1]; TV5866RR, E + L: 1.68 kg ai ha^−1 at 5, 10, 18, 25, and 32 DAE): 0.34 g plant^−1
Measured biomass or nitrogen parameters ([1]; cultivars A5901RR or H5164RR): None of the measured biomass or nitrogen parameters were decreased
Acetylene reduction activity (mean ± SE) ([2]; Run 1, 14 DAE): 33 ± 2 μmol C2H4 plant^−1 h^−1
Acetylene reduction activity (mean ± SE) ([2]; Run 1, 21 DAE): 45 ± 3 μmol C2H4 plant^−1 h^−1
Acetylene reduction activity (mean ± SE) ([2]; Run 1, 28 DAE): 76 ± 7 μmol C2H4 plant^−1 h^−1
Acetylene reduction activity (mean ± SE) ([2]; Run 2, 14 DAE): 23 ± 3 μmol C2H4 plant^−1 h^−1
Acetylene reduction activity (mean ± SE) ([2]; Run 2, 21 DAE): 53 ± 6 μmol C2H4 plant^−1 h^−1
Acetylene reduction activity (mean ± SE) ([2]; Run 2, 28 DAE): 70 ± 4 μmol C2H4 plant^−1 h^−1
Acetylene reduction activity (mean ± SE) ([2]; Run 3, 14 DAE): 57 ± 13 μmol C2H4 plant^−1 h^−1
Acetylene reduction activity (mean ± SE) ([2]; Run 3, 21 DAE): 75 ± 9 μmol C2H4 plant^−1 h^−1
Acetylene reduction activity (mean ± SE) ([2]; Run 3, 28 DAE): 115 ± 13 μmol C2H4 plant^−1 h^−1
Acetylene reduction activity (mean ± SE) ([2]; Run 4, 14 DAE): 28 ± 4 μmol C2H4 plant^−1 h^−1
Acetylene reduction activity (mean ± SE) ([2]; Run 4, 21 DAE): 56 ± 3 μmol C2H4 plant^−1 h^−1
Acetylene reduction activity (mean ± SE) ([2]; Run 4, 28 DAE): 107 ± 14 μmol C2H4 plant^−1 h^−1
Plant biomass or nitrogen content effect ([3]; DK5961RR, 19 DAE, without soil nitrogen): did not decrease
Biomass Root [3, 5]: 0.30b g plant^−1
Biomass Shoot [3, 5]: 0.63bc g plant^−1
Nitrogen Root [3, 5]: 7.53b mg plant^−1
Nitrogen Shoot [3, 5]: 22.2c mg plant^−1
Biomass Shoot [3, 6]: 0.58c g plant^−1
Nitrogen Root [3, 6]: 5.77c mg plant^−1
Nitrogen Shoot [3, 6]: 31.0b mg plant^−1
Biomass Root ([3]; DK5961RR, Harvest 1 (19 DAE), soil nitrogen yes, 1.68 kg ha^−1 5 and 12 DAE): 0.20c g plant^−1
Biomass Root [3, 7]: 0.48 g plant^−1
Biomass Shoot [3, 7]: 1.81 g plant^−1
Nitrogen Root [3, 7]: 11.1 mg plant^−1
Nitrogen Shoot [3, 7]: 70.7 mg plant^−1
Shoot nitrogen content decrease ([3]; Harvest 2 (40 DAE), averaged across soil nitrogen treatments): 13%
Growth, % of wild type USDA 110 in the absence of glyphosate ([4]; 45 selected colonies averaged, liquid culture, 14 days): 27%
OD600 ([4]; Selected cultures, averaged over all strains, after 14 days): 0.36 b^

From US6872562B2, “Herbicide resistant dinitrogen fixing bacteria and method of use” (priority 2001, dated 2005)
